We go through 6 compounds from article PMC3866693 (Journal of medicinal chemistry, 2013).

Data set [1] relates to mGluR1 in monkey brain. The experiment in a line: PET baseline experiment in rhesus monkey, brain radioactivity uptake. The format is in vivo, rhesus monkey (Macaca mulatta).
For another data set, the target named is NMDA. The experiment in a line: NIMH PDSP binding screen. Also on record: species or system human.
The target in a further data set is mGluR5 (Rattus norvegicus, UniProt P31424). The experiment in a line: stimulation of phosphoinositide hydrolysis, cloned rat receptors. The settings on record: 10 μM. The format is cell-based.
A further data set has as its target GABAA. The experiment in a line: NIMH PDSP binding screen. On the set-up: species or system human.
The subject of data set [2] is human mGluR1. As to conditions: read-out: IC50 (affinity for mGluR1); human mGluR1, reported; cited from earlier work.
A further data set deals with rat BZP site. The experiment in a line: NIMH PDSP binding screen.
The target of another data set is mGluR1 (Rattus norvegicus, UniProt P23385). Put plainly: stimulation of phosphoinositide hydrolysis, cloned rat receptors. The format is cell-based. The settings on record: 10 μM.
The conditions of data set [3]: compared with 7; cited from earlier work.
Another data set has as its system rat mGluR1. The settings on record: VS = fP × Bmax/KD; cited from earlier work.
Data set [4] deals with human mGluR1. As to conditions: VS = fP × Bmax/KD; cited from earlier work.
The target in the next data set is mGluR5 in monkey brain (Macaca mulatta, UniProt A0ACM8QRY8). The experiment in a line: PET challenge experiment with mGluR5-selective ligand in rhesus monkey. The format is in vivo, rhesus monkey (Macaca mulatta). The settings on record: 5 mg/kg i.v. at 30 min after [^18F]11, third monkey.
In data set [5] the target is mGluR1 in monkey brain (Macaca mulatta, UniProt I2CU04). The experiment in a line: PET preblock and challenge experiments with mGluR1 antagonist in rhesus monkey. The format is in vivo, rhesus monkey (Macaca mulatta).
Chain of mGluR1 in monkey brain (Macaca mulatta, UniProt I2CU04) (I2CU04 19-1195): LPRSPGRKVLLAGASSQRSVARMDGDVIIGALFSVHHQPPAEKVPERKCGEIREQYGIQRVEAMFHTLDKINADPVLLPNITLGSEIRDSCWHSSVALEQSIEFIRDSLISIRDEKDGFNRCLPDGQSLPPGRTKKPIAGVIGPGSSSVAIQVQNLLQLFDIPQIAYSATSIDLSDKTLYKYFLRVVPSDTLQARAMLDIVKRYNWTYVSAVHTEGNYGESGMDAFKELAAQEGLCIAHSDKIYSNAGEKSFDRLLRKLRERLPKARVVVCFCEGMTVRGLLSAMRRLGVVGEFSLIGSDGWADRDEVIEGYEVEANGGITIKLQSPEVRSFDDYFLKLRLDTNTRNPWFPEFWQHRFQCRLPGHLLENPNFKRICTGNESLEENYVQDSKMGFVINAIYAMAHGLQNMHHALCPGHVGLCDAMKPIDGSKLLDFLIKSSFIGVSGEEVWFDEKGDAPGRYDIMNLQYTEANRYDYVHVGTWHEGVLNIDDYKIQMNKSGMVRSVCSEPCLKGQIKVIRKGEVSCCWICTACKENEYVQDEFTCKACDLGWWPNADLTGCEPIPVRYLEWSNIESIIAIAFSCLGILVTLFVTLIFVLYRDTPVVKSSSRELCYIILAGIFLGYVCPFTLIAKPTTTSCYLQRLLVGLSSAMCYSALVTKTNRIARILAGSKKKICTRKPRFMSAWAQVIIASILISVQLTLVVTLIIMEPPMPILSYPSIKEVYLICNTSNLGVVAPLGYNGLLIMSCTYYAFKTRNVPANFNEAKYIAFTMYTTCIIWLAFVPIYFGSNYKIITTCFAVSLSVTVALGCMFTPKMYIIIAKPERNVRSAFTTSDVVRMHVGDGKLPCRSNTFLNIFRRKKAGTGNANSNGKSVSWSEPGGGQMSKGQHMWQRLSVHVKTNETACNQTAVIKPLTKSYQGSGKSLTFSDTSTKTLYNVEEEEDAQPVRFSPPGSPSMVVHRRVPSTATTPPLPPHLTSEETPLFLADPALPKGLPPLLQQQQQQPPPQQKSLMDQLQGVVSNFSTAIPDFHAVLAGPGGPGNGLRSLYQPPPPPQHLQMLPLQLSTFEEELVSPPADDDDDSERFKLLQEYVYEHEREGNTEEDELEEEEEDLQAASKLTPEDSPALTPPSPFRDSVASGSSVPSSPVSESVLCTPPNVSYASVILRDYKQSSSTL

Chain of mGluR5 (P31424 21-1203): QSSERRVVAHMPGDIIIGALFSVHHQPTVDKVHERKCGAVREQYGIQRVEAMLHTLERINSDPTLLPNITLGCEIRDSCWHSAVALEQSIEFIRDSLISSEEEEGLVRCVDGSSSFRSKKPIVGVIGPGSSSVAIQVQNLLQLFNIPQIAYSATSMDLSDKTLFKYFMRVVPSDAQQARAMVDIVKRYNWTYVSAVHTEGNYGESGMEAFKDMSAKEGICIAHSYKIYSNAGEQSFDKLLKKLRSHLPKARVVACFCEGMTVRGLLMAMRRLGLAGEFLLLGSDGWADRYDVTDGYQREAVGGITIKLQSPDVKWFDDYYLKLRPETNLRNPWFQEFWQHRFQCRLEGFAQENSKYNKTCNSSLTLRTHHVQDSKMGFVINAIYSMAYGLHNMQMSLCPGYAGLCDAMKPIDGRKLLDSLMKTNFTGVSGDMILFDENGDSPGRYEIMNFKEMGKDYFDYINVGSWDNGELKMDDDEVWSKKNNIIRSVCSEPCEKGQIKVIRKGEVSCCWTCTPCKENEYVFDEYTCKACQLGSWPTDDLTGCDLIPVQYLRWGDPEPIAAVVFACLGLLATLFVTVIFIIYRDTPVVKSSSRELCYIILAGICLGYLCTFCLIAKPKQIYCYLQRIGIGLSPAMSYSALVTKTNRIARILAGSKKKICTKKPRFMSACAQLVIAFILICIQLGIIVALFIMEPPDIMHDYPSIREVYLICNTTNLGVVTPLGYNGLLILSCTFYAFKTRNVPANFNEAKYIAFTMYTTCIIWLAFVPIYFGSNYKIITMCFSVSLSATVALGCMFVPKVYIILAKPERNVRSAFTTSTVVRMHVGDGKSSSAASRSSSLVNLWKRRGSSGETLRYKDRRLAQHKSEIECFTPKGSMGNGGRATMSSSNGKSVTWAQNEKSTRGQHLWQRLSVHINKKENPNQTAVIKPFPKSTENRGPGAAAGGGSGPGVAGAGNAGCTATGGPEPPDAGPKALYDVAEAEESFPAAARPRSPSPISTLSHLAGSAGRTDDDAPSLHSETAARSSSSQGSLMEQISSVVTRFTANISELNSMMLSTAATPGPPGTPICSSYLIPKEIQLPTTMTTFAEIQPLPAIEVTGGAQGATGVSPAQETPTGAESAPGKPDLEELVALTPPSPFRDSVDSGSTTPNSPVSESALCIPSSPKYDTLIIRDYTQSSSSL
Chain of mGluR1 (P23385 19-1199): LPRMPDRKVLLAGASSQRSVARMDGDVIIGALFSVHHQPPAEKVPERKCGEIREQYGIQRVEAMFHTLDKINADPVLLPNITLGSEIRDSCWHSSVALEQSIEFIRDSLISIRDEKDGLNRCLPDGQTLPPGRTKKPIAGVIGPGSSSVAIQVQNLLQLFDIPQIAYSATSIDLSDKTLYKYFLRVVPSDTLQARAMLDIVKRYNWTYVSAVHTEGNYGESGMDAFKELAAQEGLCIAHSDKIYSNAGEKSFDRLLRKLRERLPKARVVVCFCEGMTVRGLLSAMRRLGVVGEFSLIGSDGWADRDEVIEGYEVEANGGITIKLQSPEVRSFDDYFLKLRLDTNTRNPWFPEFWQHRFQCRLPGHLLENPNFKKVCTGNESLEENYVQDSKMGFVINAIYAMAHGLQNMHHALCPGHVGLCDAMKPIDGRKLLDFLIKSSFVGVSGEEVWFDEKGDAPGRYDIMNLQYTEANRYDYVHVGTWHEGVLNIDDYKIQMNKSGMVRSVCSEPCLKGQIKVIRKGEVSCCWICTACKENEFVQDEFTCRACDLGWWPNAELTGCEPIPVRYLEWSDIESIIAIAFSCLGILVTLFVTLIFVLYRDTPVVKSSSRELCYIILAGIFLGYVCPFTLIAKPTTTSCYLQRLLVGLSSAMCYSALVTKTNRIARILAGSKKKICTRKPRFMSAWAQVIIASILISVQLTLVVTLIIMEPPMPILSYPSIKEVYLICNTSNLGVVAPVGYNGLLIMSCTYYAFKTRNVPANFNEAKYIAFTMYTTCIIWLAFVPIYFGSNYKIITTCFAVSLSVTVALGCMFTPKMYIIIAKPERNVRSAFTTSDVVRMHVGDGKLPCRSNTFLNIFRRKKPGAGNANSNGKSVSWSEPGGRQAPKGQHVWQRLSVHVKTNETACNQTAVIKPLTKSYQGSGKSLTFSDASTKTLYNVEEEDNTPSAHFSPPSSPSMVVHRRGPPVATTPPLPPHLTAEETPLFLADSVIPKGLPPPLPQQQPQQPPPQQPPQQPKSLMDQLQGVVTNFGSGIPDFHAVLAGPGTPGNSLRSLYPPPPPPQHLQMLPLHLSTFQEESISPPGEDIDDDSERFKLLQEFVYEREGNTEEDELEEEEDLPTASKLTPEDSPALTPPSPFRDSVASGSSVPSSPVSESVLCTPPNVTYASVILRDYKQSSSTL
Chain of mGluR5 in monkey brain (A0ACM8QRY8 19-1212): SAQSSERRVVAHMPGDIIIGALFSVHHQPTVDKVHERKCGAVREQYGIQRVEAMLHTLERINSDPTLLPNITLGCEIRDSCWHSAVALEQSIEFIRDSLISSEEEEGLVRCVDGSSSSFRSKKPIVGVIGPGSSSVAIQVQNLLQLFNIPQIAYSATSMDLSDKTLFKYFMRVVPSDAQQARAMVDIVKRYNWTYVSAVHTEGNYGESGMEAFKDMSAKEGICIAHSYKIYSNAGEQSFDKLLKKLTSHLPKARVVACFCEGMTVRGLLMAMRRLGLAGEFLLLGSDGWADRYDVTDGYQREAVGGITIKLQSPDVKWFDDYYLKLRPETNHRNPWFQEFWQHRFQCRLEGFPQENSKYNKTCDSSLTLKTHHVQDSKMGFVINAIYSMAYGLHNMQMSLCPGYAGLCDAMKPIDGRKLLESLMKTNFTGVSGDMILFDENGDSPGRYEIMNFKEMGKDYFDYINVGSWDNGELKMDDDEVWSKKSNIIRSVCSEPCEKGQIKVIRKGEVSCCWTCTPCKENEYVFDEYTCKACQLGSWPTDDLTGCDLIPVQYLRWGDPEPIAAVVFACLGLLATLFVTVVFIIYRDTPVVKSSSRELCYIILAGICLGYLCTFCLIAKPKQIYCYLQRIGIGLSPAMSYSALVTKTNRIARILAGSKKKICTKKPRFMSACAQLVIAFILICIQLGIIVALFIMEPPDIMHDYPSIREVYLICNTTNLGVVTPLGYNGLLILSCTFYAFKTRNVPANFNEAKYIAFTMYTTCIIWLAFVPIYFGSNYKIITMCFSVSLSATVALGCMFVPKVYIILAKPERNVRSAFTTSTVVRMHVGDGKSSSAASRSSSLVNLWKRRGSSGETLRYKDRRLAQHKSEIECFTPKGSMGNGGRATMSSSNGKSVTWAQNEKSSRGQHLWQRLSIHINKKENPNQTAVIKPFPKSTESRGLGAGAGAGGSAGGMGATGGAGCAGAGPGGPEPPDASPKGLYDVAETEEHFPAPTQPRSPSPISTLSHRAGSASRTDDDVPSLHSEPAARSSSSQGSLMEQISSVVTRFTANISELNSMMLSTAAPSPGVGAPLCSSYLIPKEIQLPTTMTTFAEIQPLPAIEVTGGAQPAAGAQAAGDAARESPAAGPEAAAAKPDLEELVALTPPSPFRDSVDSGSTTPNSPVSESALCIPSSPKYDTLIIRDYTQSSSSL

For the compound `CNc1cc(-c2csc(N(C)C(=O)c3ccc([18F])cc3)n2)ncn1` [[^18F]11, [^18F]4-Fluoro-N-methyl-N-(4-(6-(methylamino)pyrimidin-4-yl)thiazol-2-yl)benzamide], the “radiodefluorination (radioactivity uptake in skull)” value with mGluR1 in monkey brain [1] (all PET experiments in monkey) was “negligible”. Also, the “decrease of cerebellum radioactivity from peak” value in the data set on mGluR1 in monkey brain [1] (baseline, at end of 2-h scan (120 min)) is reported as 47%.
The term Ki denotes the dissociation constant of the complex between target and ligand, obtained from inhibition or displacement. By IC50 is commonly meant the midpoint of a concentration-inhibition curve. In the case of `CNc1cc(-c2csc(N(C)C(=O)c3ccc(F)cc3)n2)ncn1` [compound 11, 4-Fluoro-N-methyl-N-(4-(6-(methylamino)pyrimidin-4-yl)thiazol-2-yl)benzamide], the Ki on NMDA, at GABAA and on rat BZP site was more than 10 µM in each case. The “efficacy at mGluR5 (stimulation of phosphoinositide hydrolysis)” value on mGluR5 is “antagonist”. Also, the IC50 in the data set with human mGluR1 [2] was 1.8 nM. For the same compound, the “efficacy at mGluR1 (stimulation of phosphoinositide hydrolysis)” value at mGluR1 is “antagonist”. In addition, in data set [3], the “extent of metabolism in human liver microsomes” value is “metabolized more extensively than 7”.
Turning to `Cc1c(-c2ccc(O[11CH3])cc2)nsc1NC(=O)[C@@H]1C[C@H]1C` [[^11C]6], the “effective binding potential (VS)” value is recorded as 0.683 in the data set with rat mGluR1 and 0.0161 in the data set with human mGluR1 [4].
As to `CC(C)Nc1cc(-c2csc(N(C)C(=O)c3ccc(F)cc3)n2)ncn1` [[^18F]7, reference compound], the IC50 in the data set on human mGluR1 [2] was 5.1 nM.
As for `Cc1nc(C#Cc2cccnc2)cs1` [compound 18, 3-((2-methyl-4-thiazolyl)ethynyl)pyridine], the “effect on [^18F]11 brain washout kinetics after challenge” value at mGluR5 in monkey brain is listed as “no change in the washout kinetics from any brain region”.
On to `CO[C@H]1CC[C@@H](C(=O)c2ccc3nc4c(cc3c2)CCCO4)CC1` [compound 17], for which the “distribution of [^18F]11 radioactivity across brain after preblock” value on mGluR1 in monkey brain [5] (3 mg/kg i.v. at 5 min before [^18F]11) is “low and uniform”. Further, at mGluR1 in monkey brain [5] (3 mg/kg i.v. at 30 min after [^18F]11, second monkey), the “effect on [^18F]11 brain radioactivity after challenge” value is listed as “rapid decrease in radioactivity at all mGluR1-containing regions”.
